In US12714723B2, “Compositions and methods for cancer therapy” (AIM ImmunoTech Inc., priority 2018, dated 2026):
Where two headings read alike, the source gives them in different places. Marks after values point to notes of the source that are not given here.

Legend:
[1] = test system: pancreatic carcinoma; test: Second-line therapy following progression on FOLFIRINOX; assay type: in vivo, human; conditions: Overall (mean)
Source text: Overall Survival (OS) increased from 6.8 months with Gemcitabine to 11.1 months with FOLFIRINOX (p<0.001). However, the Complete Response Rate (CR) was only 0.6%.

[2] = test system: locally advanced and metastatic pancreatic carcinoma; conditions: first-line therapy, n = 171 per arm; cited from earlier work
[3] = test system: pancreatic carcinoma; conditions: second-line, cited from earlier work
[4] = test system: TME of metastatic colorectal carcinoma; conditions: 9 patients vs. historical controls
Source text: Colorectal carcinoma was used as a GI model for pancreatic carcinoma in order to obtain biopsy specimens of the TME. We used […]® to determine if there is improvement in the Teff/Treg ratio in the TME secondary to the […]® induction of desirable chemokines, such as CXCL 10 (Teff-attractant), in the TME, while decreasing the unfavorable chemokines, such as CCL22 (C-C Motif Chemokine Ligand 22; Treg-attractant), thereby increasing the Teff/Treg ratio in the TME.
See, Example Section below.

[5] = test system: human bladder tumor xenografts; test: Human bladder tumor xenografts in nude mice; assay type: in vivo
[6] = test system: renal cell carcinoma (786-0) xenografts; test: Renal cell carcinoma (786-0) xenografts in nude mice; assay type: in vivo; conditions: for tumor growth: FIG. 7, vs untreated controls
[7] = test system: renal cell carcinoma (786-0) xenografts; conditions: Hubbell, 1990, cited from earlier work
[8] = test system: B16 melanoma tumors; conditions: n = 10; for Number of Partial Responses (PR) / Number of Complete Responses (CR): Day 30; for Number of Complete Responses (CR): RECIST v1.1
Protocol: Rintatolimod together with anti-PD-L1 antibodies were tested for anti-tumor activity against established subcutaneous B16 melanoma tumors in C57BL/6 mice. Mice (10 animals per group) were inoculated with 0.4×10E6 B16-F10 tumor cells in their shaved rear flanks. Seven days later (when tumors reached 0.3 to 0.5 cm in their largest diameter), mice were randomized for tumor sizes, and individually tagged and were allocated to the following six treatment groups: • No treatment (negative controls) • Rintatolimod alone 100 μg/dose 4× • Rintatolimod alone 250 μg/dose 4× • Anti-PD-L1 mAb alone • Rintatolimod 100 μg/dose 4× plus anti-PD-L1 mAb • Rintatolimod 250 μg/dose 4× plus anti-PD-L1 mAb
Rintatolimod was injected intravenously at 100 or 250 micrograms/dose and was repeated 4 times, 5 days apart. Anti-PD-L1 mAb (clone 10F.9G2, BioXCell) was administered intraperitoneally on Days 1 and 3 after each rintatolimod injection at a 200 microgram/dose. Tumors were measured 3 times per week using a set of calipers, taking measurement of 2 opposing diameters and were recorded as tumor areas.
Results were presented as tumor sizes for individual mice throughout the time of therapy, average tumor size in each group and survival up to Day 30 (time to euthanasia).
® and anti-PD-L1 antibodies were tested for anti-tumor activity against established subcutaneous B16 melanoma tumors in C57BL/6 mice. Briefly, mice (10 animals per group) were inoculated with 0.4×10E6 (i.e., 400,000) B16-F10 tumor cells in their shaved rear flanks. Seven days later, mice were randomized to six treatment groups as follows: (Group 1) No treatment (negative controls); (Group 2) […] ® alone 100 μg/dose 4×; (Group 3) […] ® alone 250 μg/dose 4×; (Group 4) Anti-PD-L1 mAb alone; (Group 5) […] ® 100 μg/dose 4× plus anti-PD-L1 mAb; (Group 6) […] ® 250 μg/dose 4× plus anti-PD-L1 mAb. mAb refers to monoclonal antibody.
® was injected IV at 100 or 250 μg/dose 4 times, 5 days apart. Anti-PD-L1 mAb was administered IP on Days 1 and 3 after each […] ® dose at 200 μg/dose. Tumors were measured 3 times per week using calipers, measuring 2 opposing diameters. […] Results were presented as tumor sizes for individual mice throughout time of therapy up to Day 30.

[9] = test system: pancreatic tumors; conditions: n = 8 each
Protocol: Please note that all four cohorts (control, […] ®, anti-PD-L1, […] ®+anti-PD-L1) were studied in the same parallel experiment.
In this experiment, sub-therapeutic doses of […] ® were administered in mouse models of pancreatic cancer.

Nc1ccn([C@@H]2O[C@H](CO)[C@@H](O)C2(F)F)c(=O)n1 [Gemcitabine]
Partial Response Rates (PR) [1]: 6.4% | Complete Response Rates (CR) ([1]; weighted average): 0%* | Progression Free Survival (PFS) ([1]; weighted average): 2.24* months | Overall Survival (OS) ([1]; weighted average based on n in each study): 4.05* months | Complete Response Rates (CR), % [2]: 0(0) % | Overall Survival (OS) [2]: 6.8 months | Partial Response Rates (PR), % [2]: 9.4% | Progression Free Survival (PFS) [2]: 3.3 months | Progression Free Survival (PFS) ([3]; Gilabert, et al. 2017, n = 72): 2.5 months | Complete Response Rates (CR) ([3]; Gilabert, et al. 2017): 0% | Partial Response Rates (PR) ([3]; Gilabert, et al. 2017): 5.5% | Overall Survival (OS) ([3]; Viaud, et al. 2017, n = 96): 3.7 months | Progression Free Survival (PFS) ([3]; Viaud, et al. 2017, n = 96): 2.1 months | Complete Response Rates (CR) ([3]; Viaud, et al. 2017): 0% | Partial Response Rates (PR) ([3]; Viaud, et al. 2017): 8.3% | Overall Survival (OS) ([3]; da Rocha, et al. 2015, n = 20): 5.7 months | Progression Free Survival (PFS) ([3]; da Rocha, et al. 2015, n = 20): 2.0 months | Complete Response Rates (CR) ([3]; da Rocha, et al. 2015): 0% | Partial Response Rates (PR) ([3]; da Rocha, et al. 2015): 0%

polyriboinosinic:polyribocytidylic(12:1)uridylic acid
ratio of Teff/Treg markers in the TME [4]: improved ratios | growth of human bladder tumor xenografts [5]: significantly inhibited | survival of nude mice ([6]; FIG. 8, 100% death rate for untreated controls): 100% | tumor growth ([6]; monotherapy, listed as rintatolimod): tumor regression was observed in each mouse | tumor growth ([6]; monotherapy, listed as tdsRNA): growth inhibition | mice free of the residual tumor ([6]; monotherapy, 100% of the control group had died): 90% | tumor growth inhibition ([7]; p<0.001): statistically significant tumor growth inhibition | survival ([7]; p<0.002): increased survival | Total # Tumor Responses CR + PR ([8]; rintatolimod 100 μg/dose 4×): 0 | Number of Partial Responses (PR) ([8]; rintatolimod 100 μg/dose 4×): 0 | Number of Complete Responses (CR) ([8]; rintatolimod 100 μg/dose 4×): 0 | Total # Tumor Responses CR + PR ([8]; rintatolimod 250 μg/dose 4×): 0 | Number of Partial Responses (PR) ([8]; rintatolimod 250 μg/dose 4×): 0 | Number of Complete Responses (CR) ([8]; rintatolimod 250 μg/dose 4×): 0 | Time to Progression Median ([9]; sub-therapeutic doses, control 33): 33 days | Increased Time to Progression ([9]; versus control): 0 days
